Where “and” joins values, the source holds several entries; their conditions need not be identical. Equal entries are not always repeated.
Legend:
[1] = biological target: T1, Tyrosinase (Sigma T3824) (Agaricus bisporus, UniProt C7FF04); experiment: Tyrosinase inhibition test; type: biochemical; settings: L-Dopa substrate; for IC50: read-out: 50% tyrosinase inhibitory concentration (IC50) (converted); for Tyrosinase inhibiting rate (%) (100 μg/ml) / inhibition at 100 µg/mL: concentration of 100 μg/ml; for inhibition at 100 µg/mL: read-out: Tyrosinase inhibiting rate (%) (100 μg/ml); for inhibition at 125 µg/mL: concentration of 125 μg/ml, read-out: Tyrosinase inhibiting rate
T1 construct: purchased Sigma T3824
T1 sequence (C7FF04 1-392 limits assumed): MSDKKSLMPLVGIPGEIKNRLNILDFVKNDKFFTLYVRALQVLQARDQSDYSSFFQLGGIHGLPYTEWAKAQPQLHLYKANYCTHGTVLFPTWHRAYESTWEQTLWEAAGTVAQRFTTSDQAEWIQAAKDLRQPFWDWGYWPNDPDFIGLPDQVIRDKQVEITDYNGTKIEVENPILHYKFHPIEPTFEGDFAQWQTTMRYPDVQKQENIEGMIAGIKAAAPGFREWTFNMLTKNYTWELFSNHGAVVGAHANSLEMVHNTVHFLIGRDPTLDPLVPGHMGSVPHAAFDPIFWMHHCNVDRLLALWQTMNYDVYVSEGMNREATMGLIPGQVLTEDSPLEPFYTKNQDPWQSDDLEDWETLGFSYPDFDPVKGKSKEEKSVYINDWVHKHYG
Experimental: Tyrosinase Inhibition Test
1. A tyrosinase solution using Tyrosinase (Sigma T3824) was prepared, wherein after diluted with a 0.1 M phosphate buffer, a 0.1 U/μl tyrosinase solution was obtained.
2. A L-Dopa solution using L-Dopa (Sigma D9628) was prepared, wherein after diluted with a 0.1 M phosphate buffer, a 1 mM L-Dopa solution was obtained and then was placed a dark environment.
3. A test sample solution was prepared comprising 10 mg/ml of a sample solution diluted with 100% of DMSO. Then the test sample solution was further diluted for require concentrations using a 0.1 M phosphate buffer.
4. 50 μl/well of the prepared test sample solution mentioned above was added into the wells of a 96 well plate (note that the same diluted concentration of DMSO for the test sample solution was also added into the wells of a 96 well plate and used for the blank group) and then 90 μl/well of the prepared 0.1 U/μl tyrosinase solution mentioned above was added thereto (the dC control group was added the 0.1 M phosphate buffer but not the 0.1 U/μl tyrosinase solution). The 96 well plate was placed under a temperature of 37° C. and mixed at 450 rpm for 5 minutes and then placed in an ELISA reader (Molecular Devices M2). The wave length of the ELISA reader was set at 492 nm to determine absorbance values of the solutions in the 96 well plate, wherein two absorbance values were determined and the average value therefrom was used as a background value. Next, 60 μl/well of the prepared 1 mM L-Dopa solution mentioned above was added to the 96 well plate (the dD control group was added the 0.1 M phosphate buffer not the 1 mM L-Dopa solution) and then the 96 well plate was placed under a temperature of 37° C. in a dark environment and mixed at 450 rpm for 15 minutes and then placed in a ELISA reader (Molecular Devices M2). The wave length of the ELISA reader was set at 492 nm to determine absorbance values of the solutions in the 96 well plate, wherein two absorbance values were determined and the average value therefrom was used as a measurement value. After the background value was subtracted from the measurement value, the tyrosinase inhibiting rate of the sample was calculated. The formula for calculating the tyrosinase inhibiting rate of the sample is shown in the following: (A−A0)−(B−B0)−dC−dD/(A−A0)×100% […]
A: absorbance value of the blank group
B: absorbance value of the sample
A0: background value of the blank group
B0: background value of the sample dC: absorbance variation for the sample only reacted with the L-Dopa dD: absorbance variation for the sample only reacted with the tyrosinase

[2] = system: Mouse melanoma B16-F0; experiment: Melanin inhibition test (melanin content analysis); type: cell-based; settings: concentration of 100 μg/ml, B16 cells, 48 hours, read-out: Melanin content inhibiting rate
Experimental: Mouse melanoma B16-F0 (ATCC CRL-6322, bought from Food Industry Research and Development Institute (FIRDI) (331 Shih-Pin Road, Hsinchu, 300 Taiwan R.O.C.)) was cultured in a medium (Dulbecco's MEM, DMEM) containing 10% fetal bovine serum and 1% penicillin-streptomycin under a temperature of 37° C., in a 5% CO2 incubator.
2. Melanin Content Analysis
Inhibition of B16 Cell Melanin by Extracts:
After a test sample was added to the B16 cells in the medium for 48 hours, the medium was removed. The B16 cells were washed twice with the PBS buffer and then 300 μl of a 1N NaOH which was preheated at a temperature of 70° C. was added to the B16 cells and the B16 cells were, placed in a 60° C. incubator for 60 minutes. Next, 200 μl of the 1N NaOH which had been added to the B16 cells mention above was added to a 96 well plate to determined the absorbance value at 405 nm. The formula for calculating the melanin content is shown in the following: Melanin content=(M/M0)×100%
M: absorbance value for B16 cells being treated with sample
M0: absorbance value for B16 cells not being treated with sample

Structure (SMILES) | IC50 [1] | Tyrosinase inhibiting rate (%) (100 μg/ml) ([1]; listed as Structure (III)) | inhibition at 100 µg/mL [1] [%] | inhibition at 125 µg/mL [1] [%] | Tyrosinase inhibiting rate (%) (100 μg/ml) [1] | Tyrosinase inhibiting rate (%) (100 μg/ml) ([1]; listed as compound 1) | inhibition at 100 µg/mL [2] [%]
O=C(/C=C/c1ccc(O)c(O)c1)NCCCCN(CCCNC(=O)/C=C/c1ccc(O)c(O)c1)C(=O)/C=C/c1ccc(O)c(O)c1 [Compound 4] | 29.4 µM and < 30.1 µM | about 63% | 62.2 ± 27.2 | 74.5 ± 16.1 |  |  | 
O=C(/C=C/c1ccc(O)cc1)NCCCCN(CCCNC(=O)/C=C/c1ccc(O)cc1)C(=O)/C=C/c1ccc(O)cc1 [Compound 1] | < 63.4 µM and 62 µM |  | ~62 |  | 61.2 ± 2.5 | about 61.2±2.5% | ~19.9
O=C(/C=C/c1ccccc1O)NCCCCN(CCCNC(=O)/C=C/c1ccccc1O)C(=O)/C=C/c1ccccc1O [Compound 3] | 752 µM |  | 10.4 ± 0.1 | 13.2 ± 1.1 |  |  | 
COc1cc(/C=C/C(=O)NCCCCN(CCCNC(=O)/C=C/c2ccc(O)c(OC)c2)C(=O)/C=C/c2ccc(O)c(OC)c2)ccc1O [Compound 2] | 335 µM |  | 15 ± 1.7 | 29.2 ± 2 |  |  | 
